Experimental data from ChEMBL document CHEMBL1154541, “Synthesis of H-bonding probes of alpha7 nAChR agonist selectivity” (Bioorg Med Chem Lett, 2009).
Activity calls are given as the source filed them. The rule behind the calls is not given here.

Legend:
Format in all cases: functional, cell-based
Conditions in all cases: Oocyte
[1] = target: Neuronal acetylcholine receptor subunit alpha-7 (Homo sapiens) (UniProt P36544); experiment: Agonist activity to alpha7 nAChR expressed in Xenopus oocytes assessed as response current at 100 uM by two-electrode voltage clamp relative to acetylcholine
[2] = target: Neuronal acetylcholine receptor subunit alpha-7 (Homo sapiens) (UniProt P36544); experiment: Agonist activity to alpha7 nAChR expressed in Xenopus oocytes assessed as response current by two-electrode voltage clamp relative to acetylcholine
[3] = target: Neuronal acetylcholine receptor; alpha4/beta2 (Homo sapiens) (UniProt P17787+P43681); experiment: Agonist activity to alpha4beta2 nAChR expressed in Xenopus oocytes assessed as response current at 100 uM by two-electrode voltage clamp relative to acetylcholine
[4] = target: Acetylcholine receptor subunit alpha (Homo sapiens) (UniProt P02708); experiment: Agonist activity to alpha-1-beta-1-epsilon-delta nAChR expressed in Xenopus oocytes assessed as response current at 100 uM by two-electrode voltage clamp relative to acetylcholine
[5] = target: Neuronal acetylcholine receptor subunit alpha-7 (Homo sapiens) (UniProt P36544); experiment: Agonist activity to alpha7 nAChR expressed in Xenopus oocytes assessed as response current at 1mM by two-electrode voltage clamp relative to acetylcholine
[6] = target: Neuronal acetylcholine receptor; alpha3/beta4 (Homo sapiens) (UniProt P30926+P32297); experiment: Agonist activity to alpha3beta4 nAChR expressed in Xenopus oocytes assessed as response current at 100 uM by two-electrode voltage clamp relative to acetylcholine

Chain of Acetylcholine receptor subunit alpha (Homo sapiens) (P02708 whole entry): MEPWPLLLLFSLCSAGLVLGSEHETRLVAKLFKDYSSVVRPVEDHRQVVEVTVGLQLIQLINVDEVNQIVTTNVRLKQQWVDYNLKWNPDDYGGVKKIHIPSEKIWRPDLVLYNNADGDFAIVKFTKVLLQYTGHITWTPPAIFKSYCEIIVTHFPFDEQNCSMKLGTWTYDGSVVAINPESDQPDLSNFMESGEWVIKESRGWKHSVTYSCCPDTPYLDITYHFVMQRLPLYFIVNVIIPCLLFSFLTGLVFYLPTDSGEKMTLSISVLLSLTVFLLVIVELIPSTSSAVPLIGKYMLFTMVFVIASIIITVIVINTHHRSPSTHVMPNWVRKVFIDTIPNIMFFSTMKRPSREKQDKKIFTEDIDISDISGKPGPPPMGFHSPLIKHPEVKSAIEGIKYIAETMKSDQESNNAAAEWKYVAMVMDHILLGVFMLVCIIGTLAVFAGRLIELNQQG
Chain of Neuronal acetylcholine receptor subunit alpha-7 (Homo sapiens) (P36544 whole entry): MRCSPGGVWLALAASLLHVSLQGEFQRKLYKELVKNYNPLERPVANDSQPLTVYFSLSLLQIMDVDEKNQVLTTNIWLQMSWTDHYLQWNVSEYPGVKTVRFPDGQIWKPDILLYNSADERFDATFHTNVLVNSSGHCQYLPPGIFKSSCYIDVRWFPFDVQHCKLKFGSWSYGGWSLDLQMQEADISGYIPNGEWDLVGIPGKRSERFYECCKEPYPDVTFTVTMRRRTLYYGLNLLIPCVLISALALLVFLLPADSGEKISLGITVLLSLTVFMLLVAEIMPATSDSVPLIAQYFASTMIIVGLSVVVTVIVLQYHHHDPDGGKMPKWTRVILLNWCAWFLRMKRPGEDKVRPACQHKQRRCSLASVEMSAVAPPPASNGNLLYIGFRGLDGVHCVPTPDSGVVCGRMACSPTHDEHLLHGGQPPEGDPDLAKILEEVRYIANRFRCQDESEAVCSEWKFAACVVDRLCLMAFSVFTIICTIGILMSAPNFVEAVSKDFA

SMILES	Activity [1] [%]	ED50 [2] [µM]	Activity [3]	Activity [4]	Activity [5] [%]	Activity [6] [%]
C(=C1/CCCN=C1c1cccnc1)/c1cccnc1	35	100	inactive	inactive	–	–
C(=C1/CCCN=C1c1cccnc1)/c1ccccn1	–	–	inactive	inactive	< 20	–
C(=C1/CCCN=C1c1cccnc1)/c1cc[nH]c1	40	–	–	–	–	5
C(=C1/CCCN=C1c1cccnc1)/c1ccc[nH]1	40	–	inactive	inactive	–	–
C(=C1/CCCN=C1c1cccnc1)/c1ccncc1	–	–	inactive	inactive	< 20	–
